Ki and remaining activity data for 40 compounds are collected here from US8835440B2, “Cyclic pyrimidin-4-carboxamides as CCR2 receptor antagonists for treatment of inflammation, asthma and COPD” (Boehringer Ingelheim International GmbH, priority 2008, dated 2014).

Each structure is given as a SMILES string.

The experiment concerns the target T1, CCR2 (Homo sapiens, UniProt P41597).
T1 construct: Membranes were prepared from THP-1 cells; endogenous in cells; host or cells: THP-1 cells (membrane preparation)
T1 sequence (P41597 1-360 isoform P41597-2): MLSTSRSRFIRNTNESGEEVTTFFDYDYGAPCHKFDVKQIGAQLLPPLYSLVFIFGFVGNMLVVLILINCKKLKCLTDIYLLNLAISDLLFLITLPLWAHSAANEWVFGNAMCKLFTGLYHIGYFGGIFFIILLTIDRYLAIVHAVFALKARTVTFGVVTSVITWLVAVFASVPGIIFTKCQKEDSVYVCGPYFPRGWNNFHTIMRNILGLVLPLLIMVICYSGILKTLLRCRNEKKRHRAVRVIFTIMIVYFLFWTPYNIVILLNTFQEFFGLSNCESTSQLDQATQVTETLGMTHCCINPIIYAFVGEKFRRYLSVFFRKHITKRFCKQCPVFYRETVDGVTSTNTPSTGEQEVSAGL
In words: CCR2 receptor membrane binding assay ([125I]MCP-1, THP-1 cell membranes, SPA beads). As to conditions: for Ki: dissociation constant hKi, [125I]MCP-1 binding to THP-1 membranes; for remaining activity at 10 µM: @ 10 μM test compound, THP-1 membranes, read-out: CCR2 % ctrl @ 10 μM. Here is the method: The above exemplary substances have been tested for binding to CCR2 using a binding assay as outlined herein below:
THP-1 cells (human acute monocytic leukaemia cells) were cultured under standardized conditions at 37° C. and 5% CO2 in a humidified incubator. THP-1 cells were cultivated in RPMI 1640 medium (Gibco 21875) containing 1% MEM-NEAA (Gibso 11140) 2 mM L-glutamine, 1.5 g/L sodium bicarbonate, 4.5 g/L glucose, 10 mM HEPES and 1.0 mM sodium pyruvate, 90%; 10% fetal calf serum (FCS Gibco 10500-064).
Membranes were prepared from THP-1 cells. THP-1 cells were centrifuged at 300×g at 4° C. for 10 min. The cell pellet was resuspendet in Phosphate Buffer Saline (PBS, including 10 μM Pefabloc and a protease inhibitor mix ‘complete’, Boehringer Mannheim (1 tablet/50 ml)), to a concentration of […]. The membrane preparation was performed by disrupting the cells by nitrogen […] (at 50 bar, for 1 h) in a “Nitrogen Bombe” (Parr Instrument). Cell debris was removed by centrifugation (800×g at 4° C., 1 min). The supernatant was centrifuged at 80000×g, 4° C. for 30 min to sediment the cell membranes. Usually 50 mg of protein (Bradford assay) were yielded from 1×10E9 cells. The membranes were resuspendet in 25 mM HEPES, 25 mM MgCl2, 1 mM CaCl2, 10% Glycerine for storage in aliquots at −80° C. in 25 mM HEPES, 25 mM MgCl2, 1 mM CaCl2, 10% Glycerine and stored at −80° C.
Receptor Membrane Binding Assay:
Perkin Elmer NEX 332 Jod 125 MCP-1, Stock: 2200 Ci/mmol solved in 2000 μl assay buffer, stored at −20° C. THP-1 membrane were adjusted with 25 mM HEPES, pH 7.2; 5 mM MgCl2; 0.5 mM CaCl2; 0.2% BSA assay buffer to a concentration of […]. Amersham Biosciences PVT-WGA Beads (RPNQ0001) were adjusted with assay buffer to a concentration of 0.24 mg/30 μl. For preparation of the membrane-bead-suspension membranes and beads were incubated for 30 min at RT under rotation (60 rpm) with a ratio of 1:2. Test compounds dissolved in 100% DMSO to a concentration of 10 mM and are further diluted with 100% DMSO to 1 mM. All additional compound dilutions were obtained with assay buffer, final 1% DMSO. Compounds, membrane-bead-suspension and [125I]MCP-1 (ca. 25000 cpm/10 μl) were incubated. Bound radioactivity was determined by scintillation counter after 8 h. Determination of affinity of test compounds (dissociation constant hKi) is calculated by iterative fitting of experimental data using the “easy sys” program, which is based on law of mass action (Schittkowski K. (1994), Numerische Mathematik, Vol. 68, 129-142).

In general, Ki refers to a measure of affinity in units of concentration, obtained from inhibition or displacement. A high value points to weaker binding. `CO[C@H]1COCC[C@H]1NC1CCN(C(=O)c2ncnc(NC[C@H]3CCC[C@@H](c4ccccc4)C3)c2C)CC1` [Example 275dh] showed a Ki of 3 nM.

Turning to `Cc1c(NCCc2ccc(Cl)c(Cl)c2)ncnc1C(=O)N1CCC(N2CCC(F)CC2)CC1` [Example 167], the remaining activity at 10 µM was 16% and the Ki came out at 246 nM.

As for `Cc1c(NCCc2ccc(F)c(F)c2)ncnc1C(=O)N1CCC(N2CCCCC2)CC1` [Example 132], the remaining activity at 10 µM stood at 31% and the affinity corresponds to a Ki of 672 nM.

Consider `Cc1c(NCc2ccc(C(C)(C)C)cc2)ncnc1C(=O)N1CCC(N2CCC[C@H]2CC(=O)N(C)C)CC1` [Example 217], for which the remaining activity at 10 µM is 54% and the Ki worked out at 4330 nM.

For `Cc1c(N[C@@H]2CCc3ccccc3C2)ncnc1C(=O)N1CCC(N2CCC(O)CC2)CC1` [Example 25], the remaining activity at 10 µM came to 47% and the affinity, expressed as Ki, was 2410 nM.

With `Cc1c(NCc2ccc(C(C)(C)C)cc2)ncnc1C(=O)N1CCC(N2CCCCC2)C1` (stereo not shown) [Example 250], the remaining activity at 10 µM was 32% and the Ki worked out at 1260 nM.

As for `COC1CCN(C2CCN(C(=O)c3ncnc(NCC4CCCC(c5ccc(Cl)cc5)C4)c3C)CC2)CC1` (stereo not shown) [Example 159lb], the Ki turned out to be 12 nM. That is a double-digit nanomolar value.

For the compound `COc1ccc(CNc2ncnc(C(=O)N3CCC(N4CCC(N(C)S(C)(=O)=O)CC4)CC3)c2C)cc1` [Example 67], the remaining activity at 10 µM was 27% and the affinity corresponds to a Ki of 1420 nM.

`Cc1ccc(C2CCC(CNc3ncnc(C(=O)N4CCC(N5CCC(N(C)S(C)(=O)=O)CC5)CC4)c3C)O2)cc1F` (stereo not shown) [Example 159na] came in with a Ki of 21 nM.

Turning to `CNC(=O)C[C@H]1CCCN1C1CCN(C(=O)c2ncnc(NCc3ccc(C(C)(C)C)cc3)c2C)CC1` [Example 214], the remaining activity at 10 µM was found to be 20% and the Ki was 711 nM.

For the compound `Cc1c(NCc2ccc(C(C)(C)C)cc2)ncnc1C(=O)N1CCC(N2CC(N(C)S(C)(=O)=O)C2)CC1` [Example 222], the remaining activity at 10 µM was found to be 31% and the inhibition constant Ki is 1310 nM.

For `Cc1c(NCC2Cc3ccccc3O2)ncnc1C(=O)N1CCC(N2CCC(O)CC2)CC1` (stereo not shown) [Example 27], the remaining activity at 10 µM is 25% and affinity was put at a Ki of 620 nM.

As to `Cc1c(OCc2ccc(C(C)(C)C)cc2)ncnc1C(=O)N1CCC(N2CCC(N(C)S(C)(=O)=O)CC2)CC1` [Example 296], the remaining activity at 10 µM was 3% and the affinity, expressed as Ki, was 69 nM.

With `Cc1ccc(CNc2ncnc(C(=O)N3CCC(N4CCC(O)CC4)CC3)c2C)cc1Cl` [Example 30], the remaining activity at 10 µM was found to be 18% and the affinity corresponds to a Ki of 446 nM.

For the compound `CCS(=O)(=O)N(C)C1CCN(C2CCN(C(=O)c3ncnc(NCc4ccc(Cl)c(Cl)c4)c3C)CC2)CC1` [Example 35], the remaining activity at 10 µM is 5% and the Ki stood at 24 nM.

In turn, `Cc1c(NCc2ccc(C(C)(C)C)cc2)ncnc1C(=O)N1CCC(NC2CCOCC2n2ncnn2)CC1` (stereo not shown) [Example 228gp] had an inhibitory constant (Ki) of 1350 nM.

The compound `Cc1c(NC[C@H]2C[C@@H](c3ccc(Cl)cc3)C2)ncnc1C(=O)N1CCC(N2CCC(N(C)S(C)(=O)=O)CC2)CC1` [Example 159wb] had a Ki of 16 nM.

With `Cc1c(NCc2ccc(Cl)c(Cl)c2)ncnc1C(=O)N1CCC(N2CCC(F)(F)CC2)CC1` [Example 244], the remaining activity at 10 µM was found to be 24% and the Ki was 366 nM.

On to `Cc1c(NCc2ccc(C(F)(F)F)c(Cl)c2)ncnc1C(=O)N1CCC(N2CCOCC2)CC1` [Example 47], for which the remaining activity at 10 µM was 14% and the Ki worked out at 222 nM.

Take `CCS(=O)(=O)N(C)C1CCN(C2CCN(C(=O)c3ncnc(NCc4ccc(C(C)(C)C)cc4)c3C)CC2)CC1` [Example 37]: the remaining activity at 10 µM is 4% and the Ki was determined as 11 nM.

Turning to `Cc1nc(NCCc2ccc(Cl)c(Cl)c2)c(C)c(C(=O)N2CCC(N3CCC(O)CC3)CC2)n1` [Example 91], the remaining activity at 10 µM amounted to 23% and the Ki worked out at 236 nM.

On to `Cc1nc(NCc2ccc(C(C)(C)C)cc2)c(C)c(C(=O)N2CCC(N3CC[C@@H](C(N)=O)C3)CC2)n1` [Example 267], for which the remaining activity at 10 µM was determined as 20% and the affinity corresponds to a Ki of 487 nM.

For `Cc1c(NCCc2ccc(Cl)c(Cl)c2)ncnc1C(=O)N1CCC(N2CCCC2)CC1` [Example 253], the remaining activity at 10 µM was 17% and the Ki worked out at 350 nM.

As for `Cc1c(NCc2ccc(Cl)c(Cl)c2)ncnc1C(=O)N1CCC(N2CC[C@H](C(N)=O)C2)CC1` [Example 256], the remaining activity at 10 µM was 25% and the Ki turned out to be 438 nM.

As to `Cc1c(OCc2ccc(C(C)(C)C)cc2)ncnc1C(=O)N1CCC(N2CCC(NS(C)(=O)=O)CC2)CC1` [Example 299], the remaining activity at 10 µM was 6% and the Ki stood at 70 nM.

Take `Cc1c(NCC2COC(c3ccccc3)C2)ncnc1C(=O)N1CCC(N2CCC(N(C)S(C)(=O)=O)CC2)CC1` (stereo not shown) [Example 159fb]: the Ki came to 199 nM.

`COc1nc(OCc2ccc(C(C)(C)C)cc2)c(C)c(C(=O)N2CCC(N3CCC(N(C)S(C)(=O)=O)CC3)CC2)n1` [Example 301] displayed an inhibition constant Ki of 22 nM.

In the case of `Cc1c(NC2CCC(c3ccccc3)CC2)ncnc1C(=O)N1CCC(N2CCC(O)CC2)CC1` (stereo not shown) [Example 22], the remaining activity at 10 µM was 24% and the Ki stood at 466 nM.

On to `Cc1c(NCc2ccc(C(C)(C)C)cc2)ncnc1C(=O)N1CCC(N2CCC(COc3ccccc3)C2)CC1` (stereo not shown) [Example 228ge], for which the Ki is 37 nM.

On to `Cc1c(NCCc2cccc(Cl)c2)ncnc1C(=O)N1CCC(N2CCCCC2)CC1` [Example 139], for which the remaining activity at 10 µM amounted to 9% and the Ki is 443 nM.

For the compound `Cc1c(NCc2ccc(Cl)c(Cl)c2)ncnc1C(=O)N1CCC(N2CCC(N3CCCS3(=O)=O)CC2)CC1` [Example 189], the remaining activity at 10 µM amounted to 13% and affinity was put at a Ki of 170 nM.

As for `Cc1c(NCc2ccc(C(C)(C)C)cc2)ncnc1C(=O)N1CCC(NC2CCOc3ccccc32)CC1` (stereo not shown) [Example 228f], the remaining activity at 10 µM is 1% and the Ki turned out to be 15 nM.

As to `Cc1c(NCC2CCCN(c3ccc(C#N)c(Cl)c3)C2)ncnc1C(=O)N1CCC(N2CCC(N(C)S(C)(=O)=O)CC2)CC1` (stereo not shown) [Example 154], the remaining activity at 10 µM was determined as 15% and the inhibitory constant (Ki) is 123 nM.

For `Cc1c(NCc2ccc(Cl)c(Cl)c2)ncnc1C(=O)N1CCC(N2CCC(N(C)S(C)(=O)=O)CC2)CC1` [Example 255], the remaining activity at 10 µM was found to be 5% and the affinity corresponds to a Ki of 33 nM.

Turning to `Cc1c(NC[C@H]2C[C@H](c3ccccc3)C2)ncnc1C(=O)N1CCC(N2CCC(N(C)S(C)(=O)=O)CC2)CC1` [Example 159ub], the Ki was 18 nM.

For `CC(=O)NC1CCN(C2CCN(C(=O)c3ncnc(NCCc4ccc(Cl)c(Cl)c4)c3C)CC2)CC1` [Example 171], the remaining activity at 10 µM was found to be 16% and the affinity corresponds to a Ki of 356 nM.

As to `CNC(=O)C1CCN(C2CCN(C(=O)c3ncnc(NCc4ccc(Cl)c(Cl)c4)c3C)CC2)CC1` [Example 186], the remaining activity at 10 µM turned out to be 8% and affinity was put at a Ki of 78 nM.

Regarding `Cc1c(NCc2ccc(C(C)(C)C)cc2)ncnc1C(=O)N1CCC(N(C)C2CCCOC2)CC1` (stereo not shown) [Example 228a], the remaining activity at 10 µM was determined as 9% and the Ki came to 1560 nM.

Regarding `Cc1c(NCc2ccc(Cl)c(Cl)c2)ncnc1C(=O)N1CCC(N2CCC3(CCNC3=O)CC2)CC1` [Example 190], the remaining activity at 10 µM turned out to be 27% and the affinity corresponds to a Ki of 783 nM.

For the compound `Cc1ccc(C2CCC(CNc3ncnc(C(=O)N4CCC(N5CCC(N(C)S(C)(=O)=O)CC5)CC4)c3C)O2)cc1` (stereo not shown) [Example 159cb], the Ki was found to be 39 nM.
